Laboratory results reported in US7410975B2, “Small molecule toll-like receptor (TLR) antagonists” (Coley Pharmaceutical Group, Inc., priority 2003, dated 2008).
Structures can show the parent of a compound that is named as a salt.

Molecular target: T1, human TLR3 (hTLR3) (Homo sapiens, UniProt O15455)
T1 construct: expressed in transfected cells
T1 sequence (O15455 24-904): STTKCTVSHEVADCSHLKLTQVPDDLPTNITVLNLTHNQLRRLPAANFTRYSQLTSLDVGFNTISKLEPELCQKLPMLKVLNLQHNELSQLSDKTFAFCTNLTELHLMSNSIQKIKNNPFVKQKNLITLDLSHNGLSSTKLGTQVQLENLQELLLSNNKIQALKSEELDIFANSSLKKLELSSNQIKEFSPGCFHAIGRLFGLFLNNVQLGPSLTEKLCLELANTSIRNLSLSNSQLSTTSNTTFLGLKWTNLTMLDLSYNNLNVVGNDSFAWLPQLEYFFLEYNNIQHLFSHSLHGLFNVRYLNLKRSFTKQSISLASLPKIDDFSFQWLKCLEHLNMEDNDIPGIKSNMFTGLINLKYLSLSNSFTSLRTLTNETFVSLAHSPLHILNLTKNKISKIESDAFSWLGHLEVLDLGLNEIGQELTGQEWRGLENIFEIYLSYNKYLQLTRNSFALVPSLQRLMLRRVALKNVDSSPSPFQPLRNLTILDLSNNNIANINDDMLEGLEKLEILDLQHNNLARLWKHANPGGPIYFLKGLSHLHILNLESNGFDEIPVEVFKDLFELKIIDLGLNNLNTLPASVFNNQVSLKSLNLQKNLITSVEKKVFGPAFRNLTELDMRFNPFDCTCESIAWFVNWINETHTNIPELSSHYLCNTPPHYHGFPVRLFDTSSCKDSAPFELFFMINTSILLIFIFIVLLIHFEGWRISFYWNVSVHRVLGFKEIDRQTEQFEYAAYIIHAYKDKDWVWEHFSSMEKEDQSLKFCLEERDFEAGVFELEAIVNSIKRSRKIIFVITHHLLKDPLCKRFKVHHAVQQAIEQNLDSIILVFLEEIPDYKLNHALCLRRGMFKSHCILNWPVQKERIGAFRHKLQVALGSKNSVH
Test: Antagonist screen, hTLR3-NFκB-293 cells, NF-κB-luciferase reporter, with EC50 of poly(I:C)
Assay type: cell-based
Details: compound at 0.5, 5, 50 μg/ml; EC50 concentration of poly(I:C); 16 h; NF-κB-luciferase
Procedure: The method is described in greater detail as follows. The cells for each individual cell clone (hTLR3-NFκB-293, hTLR7-NFκB-293, hTLR8-NFκB-293 and hTLR9-NFκB-293) were counted and seeded one day before the stimulation at 1.5×10^4 cells per well in 96-well cell culture plates. To become adherent the cells were incubated after seeding overnight at 37° C. in 5% CO2 humidified air.
The screen for each compound was performed at the same time for all of the receptors TLR3, TLR7, TLR8 and TLR9. Up to fifteen test compounds, each assayed in duplicate at each of three different final concentrations (0.5 μg/ml, 5 μg/ml, and 50 μg/ml), were used for 16 h cell stimulation on a single multiwell culture plate. A 4× final concentration master plate was created to prepare the different test compounds before they were added to the cells.
Controls were added as duplicates individually for each cell clone on the cell culture plate. Positive controls were used as follows (final concentrations): 50 μg/ml poly(I:C) for hTLR3-NFκB-293; 8 μM resiquimod (R848) for hTLR7-NFκB-293; 30 μM R848 for hTLR8-NFκB-293; and 2.5 μM CpG-ODN 2006 for hTLR9-NFκB-293. Media alone was used as negative control. After addition of controls and small molecules, the cell clones were additionally stimulated with the EC50 concentration of the appropriate receptor-specific ligand.
The mean value of wells H2 and H5 (each with cells and EC50 concentration of the appropriate receptor-specific ligand) divided by the mean of wells H3 and H6 (each with cells alone) yielded the baseline response (i.e., fold induction of luciferase activity) to EC50 concentration of the appropriate receptor-specific ligand.
After 16 h stimulation the supernatant was removed and the cells treated with lysis buffer and stored at −80° C. before measuring.
For each screen result a graphical documentation was performed.
The baseline result (measured with addition of the EC50 concentration of the receptor-specific ligand) for each cell culture plate was measured as described above. Antagonistic effects were measured by down regulation compared to the baseline. Antagonists were scored as follows: • 13: compounds for which there was clear down regulation at 0.5 μg/ml, 5 μg/ml, and 50 μg/ml; • 12: compounds for which there was clear down regulation at 5 μg/ml and 50 μg/ml; • 11: compounds for which there was clear down regulation only at 50 μg/ml; • —: compounds for which there was no clear down regulation even at 50 μg/ml. Agonists
Results were expressed as fold induction over baseline luciferase activity measured in the absence of poly(I:C). […] Additional screening was performed in like manner using additional small molecules selected from another library or specifically prepared for this purpose. Scoring is reported as above but as applied to TLR3.

Row | Compound | hTLR3 (inhibitory effect, antagonist score)
1 | CCN(CC)CCCN(CC(=O)C1c2ccc(Cl)cc2NC(=O)c2ccccc21)C(=O)c1ccccc1 (stereo not drawn) [compound 1013] | — (compounds for which there was no clear down regulation even at 50 μg/ml)
2 | O=C(O)c1ccc(C2(c3ccc(C(=O)O)cc3)OC(=O)c3ccccc32)cc1 [compound 970] | — (compounds for which there was no clear down regulation even at 50 μg/ml)
3 | CN1CCC(=C2c3ccccc3Sc3ccccc32)CC1.O=C(O)/C=C\C(=O)O [compound 294, Pimethixene maleate] | 11 (compounds for which there was clear down regulation only at 50 μg/ml)
4 | Cc1nccc2c1[nH]c1ccccc12 [compound 620, Harmane hydrochloride] | — (compounds for which there was no clear down regulation even at 50 μg/ml)
5 | CC(=O)c1ccc2c(c1)N(CCCN(C)C)c1ccccc1S2.O=C(O)/C=C\C(=O)O [compound 576, Acetopromazinemaleate salt] | 11 (compounds for which there was clear down regulation only at 50 μg/ml)
6 | OC(c1ccccc1)(c1ccccc1)C1CCNCC1 [compound 93, Azacyclonol] | — (compounds for which there was no clear down regulation even at 50 μg/ml)
7 | O=C(O)c1cccc2c1-c1ccccc1/C2=N/Nc1ccc([N+](=O)[O-])cc1[N+](=O)[O-] [compound 944] | 11 (compounds for which there was clear down regulation only at 50 μg/ml)
8 | CN1CCC(OC(c2ccccc2)c2ccccc2)CC1.Cl [compound 707, Diphenylpyralinehydrochloride] | — (compounds for which there was no clear down regulation even at 50 μg/ml)
9 | Trifluoperazinedihydrochloride [compound 313] | — (compounds for which there was no clear down regulation even at 50 μg/ml)
10 | Clc1ccccc1C(c1ccccc1)(c1ccccc1)n1ccnc1 [compound 267, Clotrimazole] | — (compounds for which there was no clear down regulation even at 50 μg/ml)
11 | CC(NCCC(c1ccccc1)c1ccccc1)c1ccccc1.Cl (stereo not drawn) [compound 270, Fendiline hydrochloride] | 11 (compounds for which there was clear down regulation only at 50 μg/ml)
12 | OCc1cc2c(cn1)[nH]c1ccccc12 [compound 878, 3-hydroxymethyl-beta-carboline] | — (compounds for which there was no clear down regulation even at 50 μg/ml)
13 | O=C(O)c1cccc2c1/C(=N/O)c1ccccc1-2 [compound 918] | — (compounds for which there was no clear down regulation even at 50 μg/ml)
14 | Cc1cccc(C2(c3cccc(C)c3)OC(=O)c3ccccc32)c1 [compound 1308] | 12 (compounds for which there was clear down regulation at 5 μg/ml and 50 μg/ml)
15 | Cc1cccc(C)c1NC(=O)CN1CCN(CCCC(c2ccc(F)cc2)c2ccc(F)cc2)CC1 [compound 381, Lidoflazine] | 11 (compounds for which there was clear down regulation only at 50 μg/ml)
